Source: patent publication US8674118B2, “Compounds and methods for the treatment or prevention of flavivirus infections” (priority 2005, dated 2014)
Like-named read-outs stand apart in the source and are kept apart here.

Test system: HCV RNA replication (replicon cell lines Huh-7, 5.2 and ET)
Test: Cell-Based Luciferase Reporter HCV RNA Replication Assay
Settings: Huh-7, 5.2 or ET replicon cells, luciferase counts after 4 days incubation, read-out: IC50

Structure (SMILES)	IC50 (Hepatitis C virus, Huh-7, 96 h) [µM]	IC50 [µM]
CC1CCC(C(=O)N(c2cc(C3=CCCCC3)sc2C(=O)O)C2CCN(c3ncccn3)CC2)CC1 (stereo not drawn) [Compound 103, 5-cyclohex-1-enyl-3-[(trans, 4-methyl-cyclohexanecarbonyl)-(1-pyrimidin-2-yl-piperidin-4-yl)-amino]-thiophene-2-carboxylic acid]	< 5	–
C[C@H]1CC[C@H](C(=O)N(c2cc(C3=CC(O)CCC3)sc2C(=O)O)[C@H]2CC[C@H](OC3CCCCO3)CC2)CC1 (relative stereo) [Compound 55, 5-(3-hydroxy-cyclohex-1-enyl)-3-{(trans-4-methyl-cyclohexanecarbonyl)-[trans-4-(tetrahydro-pyran-2-yloxy)-cyclohexyl]amino}-thiophene-2-carboxylic acid]	< 5	–
CO[C@H]1CC[C@H](N(c2cc(C3=C(F)C(F)CCC3)sc2C(=O)O)C(=O)[C@H]2CC[C@H](C)CC2)CC1 (relative stereo) [Compound 120, 5-(2,3-difluoro-cyclohex-1-enyl)-3-[(trans-4-methoxy-cyclohexyl)-(trans-4-methyl-cyclohexanecarbonyl)-amino]-thiophene-2-carboxylic acid]	< 5	–
C[C@H]1CC[C@H](C(=O)N(c2cc(C3=CCCCC3)sc2C(=O)O)[C@H]2CC[C@H](F)CC2)CC1 [Compound 70, 5-cyclohex-1-enyl-3-[(trans-4-fluoro-cyclohexyl)-(trans-4-methyl-cyclohexanecarbonyl)-amino]-thiophene-2-carboxylic acid]	< 5	–
CC(C)N(c1cc(C2=CCCCC2)sc1C(=O)O)C(=O)[C@H]1CC[C@H](C)CC1 [Compound 7, 5-Cyclohex-1-enyl-3-[isopropyl-(trans-4-methyl-cyclohexanecarbonyl)-amino]-thiophene-2-carboxylic acid]	< 5	–
CC1CCC(C(=O)N(c2cc(C3=CCCCC3)sc2C(=O)O)C2CCC3(CC2)CC(=O)N(C)C3)CC1 (stereo not drawn) [Compound 128, 5-cyclohex-1-enyl-3-[(trans-4-methyl-cyclohexanecarbonyl)-trans(2-methyl-3-oxo-2-aza-spiro[4.5]dec-8-yl)-amino]-thiophene-2-carboxylic acid]	–	< 5
C[C@H]1CC[C@H](C(=O)N(c2cc(C3=CCCCC3)sc2C(=O)O)C2CC2)CC1 [Compound 51, 5-cyclohex-1-enyl-3-[cyclopropyl-(trans-4-methyl-cyclohexanecarbonyl)-amino]-thiophene-2-carboxylic acid]	5 to 25	–
CC1CCC(C(=O)N(c2cc(C3=CCCCC3)sc2C(=O)O)C2CCC(C)(C#N)CC2)CC1 (stereo not drawn) [Compound 106, 3-[(trans-4-cyano-4-methyl-cyclohexyl)-(trans-4-methylcyclohexanecarbonyl)-amino]-5-cyclohex-1-enyl-thiophene-2-carboxylic acid]	–	< 5
CC1CC=C(c2cc(N(C(=O)[C@H]3CC[C@H](C)CC3)C(C)C)c(C(=O)O)s2)CC1 (relative stereo) [Compound 43, 3-[isopropyl-(trans-4-methyl-cyclohexanecarbonyl)-amino]-5-(4-methyl-cyclohex-1-enyl)-thiophene-2-carboxylic acid]	< 5	–
C[C@H]1CC[C@H](C(=O)N(c2cc(C3=CCCCC3)sc2C(=O)O)C2CCN(C=O)CC2)CC1 [Compound 98, 5-cyclohex-1-enyl-3-[(1-formyl-piperidin-4-yl)-(trans-4-methyl-cyclohexanecarbonyl)-amino]-thiophene-2-carboxylic acid]	< 5	–
CC1CCC(C(=O)N(c2cc(C3=CC/C(=N/OCc4ccccc4)CC3)sc2C(=O)O)C2CCC(O)CC2)CC1 (stereo not drawn) [Compound 26, 5-{4-benzyloxyimino-cyclohex-1-enyl}-3-[(4-trans-hydroxy-cyclohexyl)-(4-trans-methyl-cyclohexanecarbonyl)-amino]-thiophene-2-carboxylic acid]	< 5	–
CN1C(=O)N(C)C2(CCC(N(c3cc(C4=CCC(C)(C)CC4)sc3C(=O)O)C(=O)[C@H]3CC[C@H](C)CC3)CC2)C1=O (relative stereo) [Compound 75, 5-(4,4-dimethyl-cyclohex-1-enyl)-3-[(1,3-dimethyl-2,4-dioxo-1,3-diaza-spiro[4.5]dec-8-yl)-(trans-4-methyl-cyclohexanecarbonyl)-amino]-thiophene-2-carboxylic acid]	< 5	–
C[C@H]1CC[C@H](C(=O)N(c2cc(C3=CCCCC3)sc2C(=O)O)C2CCOCC2)CC1 [Compound 29, 5-cyclohex-1-enyl-3-[(trans-4-methyl-cyclohexanecarbonyl)-(tetrahydro-pyran-4-yl)-amino]-thiophene-2-carboxylic acid]	< 5	–
CNC(=O)C1CCC(N(C(=O)C2CCC(C)CC2)c2cc(C3=CCCCC3)sc2C(=O)O)CC1C(=O)O (stereo not drawn) [Compound 68, 3-[(3-trans-carboxy-4-trans-methylcarbamoyl-cyclohexyl)-(4-trans-methyl-cyclohexanecarbonyl)-amino]-5-cyclohex-1-enyl-thiophene-2-carboxylic acid]	< 5	–
COC1CCC(N(C(=O)C2CCC(C)CC2)c2cc(C3=CCCCC3)sc2C(=O)O)CC1 (stereo not drawn) [Compound 23, 5-Cyclohex-1-enyl-3-[(cis-4-methoxy-cyclohexyl)-(4-trans-methyl-cyclohexanecarbonyl)-amino]-thiophene-2-carboxylic acid]	< 5	–
COC1CCC(N(C(=O)C2CCC(C)CC2)c2cc(C3CCC(F)(F)CC3)sc2C(=O)O)CC1 (stereo not drawn) [Compound 122, 5-(4,4-difluoro-cyclohexyl)-3-[(4-trans-methoxy-cyclohexyl)-(4-trans-methyl-cyclohexanecarbonyl)-amino]-thiophene-2-carboxylic acid]	< 5	–
COC(=O)C(NC(=O)O[C@H]1CC[C@H](N(c2cc(C3=CCCCC3)sc2C(=O)O)C(=O)[C@H]2CC[C@H](C)CC2)CC1)C(C)C (relative stereo) [Compound 19, 5-Cyclohex-1-enyl-3-[[trans-4-(1-methoxycarbonyl-2-methyl-propylcarbamoyloxy)-cyclohexyl]-(trans-4-methyl-cyclohexanecarbonyl)amino]-thiophene-2-carboxylic acid]	< 5	–
COC1CCC(N(C(=O)C2CCC(C)CC2)c2cc(C3CCCCC3)sc2C(=O)O)CC1 (stereo not drawn) [Compound 112, 5-cyclohexyl-3-[(4-trans-methoxy-cyclohexyl)-(4-trans-methyl-cyclohexanecarbonyl)-amino]-thiophene-2-carboxylic acid]	< 5	–
C[C@H]1CC[C@H](C(=O)N(c2cc(C3=CC(O)CCC3)sc2C(=O)O)[C@H]2CC[C@H](O)CC2)CC1 (relative stereo) [Compound 82, 5-(3-hydroxy-cyclohex-1-enyl)-3-[(trans-4-hydroxy-cyclohexyl)-(trans-4-methyl-cyclohexanecarbonyl)-amino]-thiophene-2-carboxylic acid]	5 to 25	–
C[C@H]1CC[C@H](C(=O)N(c2cc(C3CCCCC3)sc2C(=O)O)[C@H]2CC[C@H](O)CC2)CC1 [Compound 2, 5-Cyclohexyl-3-[(trans-4-hydroxy-cyclohexyl)-(trans-4-methyl-cyclohexanecarbonyl)-amino]-thiophene-2-carboxylic acid]	< 5	–
C[C@H]1CC[C@H](C(=O)N(c2cc(C3=CCCCC3)sc2C(=O)O)C2CC3CCC(C3)C2)CC1 (relative stereo) [Compound 40, 3-[bicyclo[3.2.1]oct-3-yl-(trans-4-methylcyclohexanecarbonyl)-amino]-5-cyclohex-1-enyl-thiophene-2-carboxylic acid]	< 5	–
C[C@H]1CC[C@H](C(=O)N(c2cc(C3=CCCCC3)sc2C(=O)O)C2COCOC2)CC1 [Compound 30, 5-cyclohex-1-enyl-3-[[1,3]dioxan-5-yl-(trans-4-methylcyclohexanecarbonyl)-amino]-thiophene-2-carboxylic acid]	< 5	–
CC1CCC(C(=O)N(c2cc(C3=CCCCC3)sc2C(=O)O)C2CCC3CCCCC3C2)CC1 (mixture of isomers) [Compound 65, 5-cyclohex-1-enyl-3-[(cis/trans-decahydro-naphthalen-2-yl)-(4-trans-methyl-cyclohexanecarbonyl)-amino]-thiophene-2-carboxylic acid]	< 5	–
CCC(=O)N(C)C1CCC(N(c2cc(C3=CCCCC3)sc2C(=O)O)C(=O)[C@H]2CC[C@H](C)CC2)CC1 (relative stereo) [Compound 140, 5-cyclohex-1-enyl-3-{(trans-4-methyl-cyclohexanecarbonyl)-[4-(methyl-propionyl-amino)-cyclohexyl]-amino}-thiophene-2-carboxylic acid]	< 5	–
CC1CCC(C(=O)N(c2cc(C3=CCCCC3)sc2C(=O)O)C2CCC(C(C)(C)C)CC2)CC1 (stereo not drawn) [Compound 44, 3-[(4-trans-tert-butyl-cyclohexyl)-(4-trans-methyl-cyclohexanecarbonyl)-amino]-5-cyclohex-1-enyl-thiophene-2-carboxylic acid]	5 to 25	–
CC(C)(C)C1CC=C(c2cc(N(C(=O)[C@H]3CC[C@H](C)CC3)[C@H]3CC[C@H](O)CC3)c(C(=O)O)s2)CC1 (relative stereo) [Compound 13, 5-(4-Tert-butyl-cyclohex-1-enyl)-3-[(trans-4-hydroxy-cyclohexyl)-(trans-4-methyl-cyclohexanecarbonyl)-amino]-thiophene-2-carboxylic acid]	< 5	–
COCO[C@H]1CC[C@H](N(c2cc(C3=CCCCC3)sc2C(=O)O)C(=O)[C@H]2CC[C@H](C)CC2)CC1 [Compound 24, 5-Cyclohex-1-enyl-3-[(trans-4-methoxymethoxy-cyclohexyl)-(trans-4-methyl-cyclohexanecarbonyl)-amino]-thiophene-2-carboxylic acid]	< 5	–
CC1OCC(N(c2cc(C3=CCCCC3)sc2C(=O)O)C(=O)[C@H]2CC[C@H](C)CC2)CO1 (relative stereo) [Compound 36, 5-cyclohex-1-enyl-3-[(trans-4-methyl-cyclohexanecarbonyl)-(2-methyl-[1,3]dioxan-5-yl)-amino]-thiophene-2-carboxylic acid]	< 5	–
